Entries after “also recorded” stand apart in the source; their conditions may differ.
Experiments:
[1] = tested on: postmenopausal osteoporotic women; experiment: Dose ranging study in postmenopausal osteoporotic women; type: in vivo, human; conditions: oral 0.5 to 8.0 μg/day, escalated weekly over five weeks
Description: Twenty postmenopausal osteoporotic women are enrolled in an open label study.
On admission to the study, all patients receive instruction on selecting a daily diet containing 400 to 600 mg of calcium. Compliance to this diet is verified at weekly intervals by 24-hour food records and by interviews with each patient.
All patients complete a one-week baseline period, a five-week treatment period, and a one-week post-treatment observation period. During the treatment period, patients orally self-administer 1α,24(S)-dihydroxyvitamin D2 at an initial dose of 0.5 μg/day for the first week, and at successively higher doses of 1.0, 2.0, 4.0, and 8.0 μg/day in each of the following four weeks. All doses are administered before breakfast.
Blood and urine chemistries are monitored on a weekly basis throughout the study. Key blood chemistries include fasting serum levels of-calcium, phosphorus, osteocalcin, creatinine, and blood urea nitrogen. Key urine chemistries include 24-hour excretion of calcium, phosphorus, and creatinine.

Human keratinocytes = experiment: Epidermal cell differentiation and proliferation testing; type: cell-based; conditions: 0.05 to 5 μg/ml
Description: Human keratinocytes are cultured according to known modifications of the system originally described by Rheinwald and Green (Cell, vol. 6, p. 331 (1975)). The 1α,24(S)-dihydroxy vitamin D2, dissolved in ethanol, is added to cells to yield a variety of concentrations between 0.05 and 5 μg/ml with the ethanol concentration not to exceed 0.5% v/v. Control cultures are supplemented with ethanol at a final concentration of 0.5% v/v.
Differentiation and proliferation of epidermal cells in culture is examined by:
1. quantitation of cornified envelopes;
2. quantitation of cell density of cells attached to disks;
3. monitoring transglutaminase activity; or
4. monitoring DNA synthesis by incorporation of ^3 H-thymidine.

[2] = Blood metabolite levels in osteoporotic women administered 1α-OH-D2; type: in vivo; conditions: one day after a single 2 μg dose of 1α-OH-D2; human females
Description: An increase in the production of 1α,24(S)-(OH)2 D2 relative to 1α,25-(OH)2 D2 has also been observed by the present inventors in human females who received 1α-OH-D2 as part of an investigation of that drug for the treatment of osteoporosis. Following either a single dose of 2 μg of 1α-OH-D2 or daily doses of 8 μg/day for one week, blood was collected and analyzed for the metabolites 1α,24(S)-(OH)2 D2 and 1α,25-(OH)2 D2. Lipid was extracted from the blood, and the metabolites were purified by HPLC using standard methods and quantified with the radioreceptor assay produced by Incstar (Stillwater, Minn.). One day after a single 2 μg dose, the level of 1α,24(S)-(OH)2 D2 was undetectable with the 1α,25-(OH)2 D2 level being approximately 11 pg/ml. In contrast, one day following the last dose of 8 μg, the level of 1α,24(S)-(OH)2 D2 averaged 9 pg/ml with the 1α,25-(OH)2 D2 level averaging 30 pg/ml.

[3] = tested on: healthy postmenopausal women; experiment: Prophylaxis of postmenopausal bone loss; type: in vivo, human; conditions: at or above 1.0 μg/day, 24 to 36 months
Description: A clinical study is conducted with healthy postmenopausal women having ages between 55 and 60 years. The study involves up to 80 patients randomly divided into two treatment groups, and continues for 24 to 36 months. One treatment group receives a constant dosage of 1α,24(S)-dihydroxy vitamin D2 (u.i.d.; a dose level at or above 1.0 μg/day) and the other receives a matching placebo. The study is conducted as indicated in Example 2 above.

bovine thymus VDR = target: T1, bovine thymus VDR (Bos taurus, UniProt Q28037); experiment: Radioreceptor assay, displacement of 3H-1α,25-(OH)2 D3 tracer (Incstar kit); type: binding; conditions: in words
T1 construct: commercially available kit of bovine thymus VDR; purchased Incstar (Stillwater, Minn.); host or cells: bovine thymus
T1 sequence (Q28037 1-426): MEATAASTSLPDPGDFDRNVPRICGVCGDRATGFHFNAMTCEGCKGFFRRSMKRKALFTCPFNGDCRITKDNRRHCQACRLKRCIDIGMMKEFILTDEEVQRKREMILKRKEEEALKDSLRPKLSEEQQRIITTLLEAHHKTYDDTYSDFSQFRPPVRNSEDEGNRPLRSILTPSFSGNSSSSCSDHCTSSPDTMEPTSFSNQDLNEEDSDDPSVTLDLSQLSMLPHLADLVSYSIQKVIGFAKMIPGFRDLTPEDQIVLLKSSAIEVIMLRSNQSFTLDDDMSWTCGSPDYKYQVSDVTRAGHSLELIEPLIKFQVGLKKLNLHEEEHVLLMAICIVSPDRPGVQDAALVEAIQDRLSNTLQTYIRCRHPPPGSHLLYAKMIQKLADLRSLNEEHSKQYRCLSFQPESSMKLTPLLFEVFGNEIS
From the text: Purified 1α,24(S)-(OH)2 D2 was quantitated by photodiode array spectrophotometry and assayed in the radioreceptor assay.
The purified 1α,24(R)-(OH)2 D2 and 1α,24(S)-(OH)2 D2 epimers were quantitated by ultraviolet spectroscopy. The concentration of 1α,24(R)-(OH)2 D2 required to produce the same displacement of ^3 H-1α,25-(OH)2 D3 tracer from the receptor was 20 to 30 times that required for 1α,24(S)-(OH)2 D2, as shown in FIG. 4.

[4] = tested on: postmenopausal osteoporotic out-patients; experiment: Preventive treatment of bone mass loss in postmenopausal osteoporotic women; type: in vivo, human; conditions: at or above 1.0 μg/day, 24 to 36 months
Description: A clinical study is conducted with postmenopausal osteoporotic out-patientshaving ages between 55 and 75 years. The study involves up to 120 patients randomly divided into three treatment groups and continues for 24 to 36 months. Two of the treatment groups receive constant dosages of 1α,24(S)-dihydroxy vitamin D2 (u.i.d.; two different dose levels at or above 1.0 μg/day) and the other group receives a matching placebo. All patients maintain a normal intake of dietary calcium (500 to 800 mg/day) and refrain from using calcium supplements. Efficacy is evaluated by pre-and post-treatment comparisons of the patient groups with regard to (a) total body calcium retention, and (b) radial and spinal bone mineral density as determined by dual-photon absorptiometry (DPA) or dual-energy x-ray absorptiometry (DEXA). Safety is evaluated by comparisons of urinary hydroxyproline excretion, serum and urine calcium levels, creatinine. clearance, blood urea nitrogen, and other routine determinations.

C=C1/C(=C\C=C2/CCC[C@]3(C)[C@@H]([C@H](C)/C=C/[C@@](C)(O)C(C)C)CC[C@@H]23)C[C@@H](O)C[C@@H]1O [1α,24(S)-(OH)2 D2, 1α,24(S)-dihydroxy Vitamin D2]
routinely monitored serum parameters [1]: no effect | serum osteocalcin levels [1]: increases | urinary excretion of hydroxyproline [1]: nor does it increase | DNA synthesis (3H-thymidine incorporation) vs control cultures (Human keratinocytes): lower DNA synthesis | cell density of attached cells vs control cultures (Human keratinocytes): fewer attached cells | cornified envelopes vs control cultures (Human keratinocytes): more cornified envelopes | transglutaminase activity vs control cultures (Human keratinocytes): higher transglutaminase activity | blood level of metabolite [2]: undetectable | monitored safety parameters, long-term administration [3]: confirm the safety | affinity for VDR relative to 1α,25-(OH)2 D3 (bovine thymus VDR): two-fold less competitive; also recorded: two-fold lower affinity | incidence of hypercalcemia or hypercalciuria, or any other metabolic disturbance [4]: insignificant incidence | total body calcium, and radial and spinal bone densities relative to placebo [4]: significantly higher
